{"source": "patent US20220000840A1", "about": "“PHARMACEUTICAL COMPOSITION AND PREPARATION METHOD THEREFOR” (priority 2015, published 2022)", "key": {"[1]": {"assay": "Stability of NL-101 intermediate/diluted solution (before lyophilization) at room temperature (25±2°C), HPLC", "assay_type": "physicochemical", "settings": "for Purity: intermediate solution per Example 2 of CN103826630A, room temperature (25 ± 2° C.)", "procedure": "(§1) Northlake Biosciences LLC submitted an application WO2013010286A2 on Sep. 14, 2012, and its Chinese family patent is CN103826630A. Chinese family patent application CN103826630A uses acetic acid to dissolve NL-101 and use cyclodextrin inclusion technology to prepare lyophilized powder for injection to improve the safety of NL-101. However, the prepared NL-101 lyophilized powder for injection, such as Example 2, although claimed to be chemically stable at −20° C., 4° C. and room temperature for at least 2 weeks, in fact, the inventors of the present application have verified that the results are still far from satisfying the clinical application requirements of drugs. Although it can be stable for 2-3 weeks at −20° C. and 4° C., it is only stable for several days at room temperature. […] Especially when placed only 5 days in the condition of high temperature accelerated test at 40° C., more than 15% of NL-101 was degraded. The specific stability test results are shown in Table 1, Table 2, and Table 3 below.\nThe diluted solutions prepared according to the formulations 1-15, 1-1, 2-1, 3-1 and according to Example 2 of CN103826630A were left to stand for 2 hours at room temperature (25±2° C.) and the stability of each diluted solution was tested by high performance liquid chromatography.\nThe diluted solutions prepared according to the formulations 16-29 and according to Example 2 of CN103826630A were left to stand for 2 hours at room temperature (25±2° C.) and the stability of each diluted solution was tested by high performance liquid chromatography.\nThree batches of diluted solutions were taken and placed at room temperature (25±2° C.) for different periods of time. The stability of each diluted solution was tested by high performance liquid chromatography."}, "[2]": {"assay": "Solubility and chemical stability of NL-101 drug substance", "assay_type": "physicochemical"}, "[3]": {"settings": "lyophilized powder for injection of CN103826630A Example 2, at −20° C., 4° C. and room temperature, as claimed in CN103826630A; cited from earlier work"}, "[4]": {"settings": "intravenous injection of prior-art injection (NL-101 dissolved with acetic acid, diluted with water for injection), animal; cited from earlier work"}, "[5]": {"assay": "Stability of NL-101 reconstituted solution (5 mg/mL) at room temperature (25±2°C)", "assay_type": "physicochemical", "settings": "CN103826630A Example 2 lyophilized preparation", "description": "In the process of investigating the NL-101 lyophilized preparation, the inventors unexpectedly discovered that reconstitution of the NL-101 lyophilized preparation with different solvents has a great influence on the stability of NL-101. For example, the lyophilized preparation prepared in Example 2 of CN103826630A was reconstituted with water for injection and physiological saline, respectively, and the purity of NL-101 in the reconstituted solution was examined at different time points.\nSince the NL-101 lyophilized powder for injection prepared in Example 2 of CN103826630A contains sodium ions, it is speculated that the stability of NL-101 is increased by chlorine ions in sodium chloride. In order to confirm this, we conducted a stability investigation by reconstituting the lyophilized preparation prepared in Example 2 of CN103826630A in a potassium chloride solution having the same molar concentration as physiological saline."}, "[6]": {"assay": "Accelerated test of NL-101 lyophilized preparation at 40°C, HPLC / HPLC-MS", "assay_type": "physicochemical", "settings": "for Purity: lyophilized preparation per Example 2 of CN103826630A, accelerated test at 40° C.", "procedure": "as §1\nThe NL-101 lyophilized preparation for injection prepared according to the formulation 4 was taken and subjected to an accelerated test at 40° C., and the stability was tested by high performance liquid chromatography.\nThe NL-101 lyophilized preparation for injection prepared according to the formulations 16 and 22 were taken and subjected to an accelerated test at 40° C., and the accelerated test samples were test by high performance liquid chromatography in connection with mass spectrometry.\nThe above three batches of lyophilized powder for injection were taken and subjected to accelerated experiments at 40° C. The contents and total impurities were measured at 0, 1, 3, and 6 months, respectively."}, "[7]": {"assay": "Storage stability of NL-101 lyophilized preparation (room temperature, 4°C, -20°C)", "assay_type": "physicochemical", "settings": "for time stable: verified by the inventors; for Purity: lyophilized preparation per Example 2 of CN103826630A, room temperature (25 ± 2° C.)", "procedure": "as §1\nAccording to the accelerated test results at 40° C., it is presumed that under the condition of storage, transportation and sales at room temperature (25±2° C.), it can remain stable for at least 2 years and fully meet the needs of clinical use."}}}
{"smiles": "Cn1c(CCCCCCC(=O)NO)nc2cc(N(CCCl)CCCl)ccc21", "note": "[NL-101, 7-[5-[bis(chloroethyl)-amino]-1-methylbenzimidazol-2-yl]-N-hydroxyl-heptamide]", "values": [{"measurement": "NL-101 degraded", "setting": "[1]; intermediate solution before lyophilization per Example 2 of CN103826630A, in the dark at room temperature for 4 hours", "result": "more than 15%"}, {"measurement": "Purity", "setting": "[1]; 0 h", "result": 94.05, "unit": "%"}, {"measurement": "Purity", "setting": "[1]; 2 h", "result": 88.06, "unit": "%"}, {"measurement": "Purity", "setting": "[1]; 4 h", "result": 78.22, "unit": "%"}, {"measurement": "solubility", "setting": "[2]; in acetic acid", "result": "easily soluble"}, {"measurement": "stability", "setting": "[2]; in aqueous solution", "result": "unstable"}, {"measurement": "stability", "setting": "[2]; in case of strong acid, strong alkali, strong oxidant and light", "result": "easily degraded"}, {"measurement": "solubility", "setting": "[2]; in ethanol", "result": "very slightly soluble"}, {"measurement": "solubility", "setting": "[2]; in methanol", "result": "slightly soluble"}, {"measurement": "stability", "setting": "[2]; in methanol and acetic acid solution", "result": "relatively stable"}, {"measurement": "solubility", "setting": "[2]; in water", "result": "insoluble"}, {"measurement": "time claimed to be chemically stable", "setting": "[3]", "result": "at least 2 weeks"}, {"measurement": "mortality rate", "setting": "[4]", "result": "high"}, {"measurement": "toxicity", "setting": "[4]", "result": "highly toxic"}, {"measurement": "vascular irritation", "setting": "[4]", "result": "large"}, {"measurement": "purity of NL-101 reconstituted with potassium chloride injection", "setting": "[5]; 0 h", "result": 91.28, "unit": "%"}, {"measurement": "purity of NL-101 reconstituted with sodium chloride injection", "setting": "[5]; 0 h", "result": 91.88, "unit": "%"}, {"measurement": "purity of NL-101 reconstituted with water for injection", "setting": "[5]; 0 h", "result": 90.23, "unit": "%"}, {"measurement": "purity of NL-101 reconstituted with potassium chloride injection", "setting": "[5]; 2 h", "result": 86.25, "unit": "%"}, {"measurement": "purity of NL-101 reconstituted with sodium chloride injection", "setting": "[5]; 2 h", "result": 87.05, "unit": "%"}, {"measurement": "purity of NL-101 reconstituted with water for injection", "setting": "[5]; 2 h", "result": 80.06, "unit": "%"}, {"measurement": "purity of NL-101 reconstituted with potassium chloride injection", "setting": "[5]; 4 h", "result": 81.93, "unit": "%"}, {"measurement": "purity of NL-101 reconstituted with sodium chloride injection", "setting": "[5]; 4 h", "result": 80.23, "unit": "%"}, {"measurement": "purity of NL-101 reconstituted with water for injection", "setting": "[5]; 4 h", "result": 71.08, "unit": "%"}, {"measurement": "purity of NL-101 reconstituted with potassium chloride injection", "setting": "[5]; 6 h", "result": 83.56, "unit": "%"}, {"measurement": "purity of NL-101 reconstituted with sodium chloride injection", "setting": "[5]; 6 h", "result": 78.33, "unit": "%"}, {"measurement": "purity of NL-101 reconstituted with water for injection", "setting": "[5]; 6 h", "result": 59.36, "unit": "%"}, {"measurement": "NL-101 degraded", "setting": "[6]; lyophilized powder for injection of CN103826630A Example 2, 5 days in accelerated test at 40° C.", "result": "more than 15%"}, {"measurement": "Purity", "setting": "[6]; day 0", "result": 90.23, "unit": "%"}, {"measurement": "Purity", "setting": "[6]; day 5", "result": 72.31, "unit": "%"}, {"measurement": "time stable", "setting": "[7]; lyophilized powder for injection of CN103826630A Example 2, at room temperature", "result": "several days"}, {"measurement": "time stable", "setting": "[7]; lyophilized powder for injection of CN103826630A Example 2, at −20° C. and 4° C.", "result": "2-3 weeks"}, {"measurement": "degradation of NL-101", "setting": "[7]; lyophilized powder for injection of CN103826630A Example 2, room temperature for 1 month", "result": "degraded severely"}, {"measurement": "Purity", "setting": "[7]; day 0", "result": 90.23, "unit": "%"}, {"measurement": "Purity", "setting": "[7]; day 5", "result": 85.16, "unit": "%"}, {"measurement": "Purity", "setting": "[7]; day 15", "result": 77.31, "unit": "%"}, {"measurement": "Purity", "setting": "[7]; day 30", "result": 70.55, "unit": "%"}]}
